{"source": "ChEMBL document CHEMBL3351564", "about": "“Discovery of a phosphodiesterase 9A inhibitor as a potential hypoglycemic agent” (J Med Chem, 2014)", "key": {"[1]": {"molecular_target": "High affinity 3',5'-cyclic-AMP phosphodiesterase 7A (Homo sapiens, UniProt Q13946)", "sequence (Q13946 whole entry, the tested form may be a part)": "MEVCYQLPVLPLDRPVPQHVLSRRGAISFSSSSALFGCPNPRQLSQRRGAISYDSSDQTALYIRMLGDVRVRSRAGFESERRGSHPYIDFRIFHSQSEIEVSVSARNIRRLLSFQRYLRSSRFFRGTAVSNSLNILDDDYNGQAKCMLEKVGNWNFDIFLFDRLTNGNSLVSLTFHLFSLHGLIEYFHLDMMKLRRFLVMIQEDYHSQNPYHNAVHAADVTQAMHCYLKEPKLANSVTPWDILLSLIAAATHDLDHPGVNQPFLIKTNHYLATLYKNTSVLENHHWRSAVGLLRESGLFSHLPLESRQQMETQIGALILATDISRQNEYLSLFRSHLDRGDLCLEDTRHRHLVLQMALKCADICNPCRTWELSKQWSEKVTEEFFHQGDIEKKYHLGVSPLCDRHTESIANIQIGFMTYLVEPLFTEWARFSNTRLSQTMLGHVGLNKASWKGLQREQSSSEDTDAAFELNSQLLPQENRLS", "assay": "Inhibition of PDE7A1 catalytic domain (unknown origin) using [3H]-cGMP/[3H]-cAMP as substrate after 15 mins by liquid scintillation counting analysis"}, "[2]": {"molecular_target": "High affinity cGMP-specific 3',5'-cyclic phosphodiesterase 9A (Homo sapiens, UniProt O76083)", "sequence (O76083 whole entry, the tested form may be a part)": "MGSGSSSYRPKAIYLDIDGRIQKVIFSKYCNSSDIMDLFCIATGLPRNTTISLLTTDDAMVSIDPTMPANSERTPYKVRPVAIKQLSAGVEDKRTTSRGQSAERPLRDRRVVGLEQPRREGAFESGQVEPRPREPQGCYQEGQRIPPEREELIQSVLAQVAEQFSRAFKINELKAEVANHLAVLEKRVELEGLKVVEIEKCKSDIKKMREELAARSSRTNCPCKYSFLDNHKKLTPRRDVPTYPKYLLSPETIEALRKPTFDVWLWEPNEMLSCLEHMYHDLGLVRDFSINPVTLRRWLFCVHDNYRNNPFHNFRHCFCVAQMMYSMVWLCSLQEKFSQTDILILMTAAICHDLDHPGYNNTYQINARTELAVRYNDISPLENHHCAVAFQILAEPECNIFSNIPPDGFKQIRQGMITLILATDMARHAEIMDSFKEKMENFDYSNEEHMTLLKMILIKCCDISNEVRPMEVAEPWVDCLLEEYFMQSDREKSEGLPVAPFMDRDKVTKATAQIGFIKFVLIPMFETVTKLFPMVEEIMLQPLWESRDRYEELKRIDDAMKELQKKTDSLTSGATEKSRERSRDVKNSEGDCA", "assay": "Inhibition of PDE9A2 catalytic domain (unknown origin) using [3H]-cGMP/[3H]-cAMP as substrate after 15 mins by liquid scintillation counting analysis"}, "[3]": {"molecular_target": "High affinity cAMP-specific and IBMX-insensitive 3',5'-cyclic phosphodiesterase 8A (Homo sapiens, UniProt O60658)", "sequence (O60658 whole entry, the tested form may be a part)": "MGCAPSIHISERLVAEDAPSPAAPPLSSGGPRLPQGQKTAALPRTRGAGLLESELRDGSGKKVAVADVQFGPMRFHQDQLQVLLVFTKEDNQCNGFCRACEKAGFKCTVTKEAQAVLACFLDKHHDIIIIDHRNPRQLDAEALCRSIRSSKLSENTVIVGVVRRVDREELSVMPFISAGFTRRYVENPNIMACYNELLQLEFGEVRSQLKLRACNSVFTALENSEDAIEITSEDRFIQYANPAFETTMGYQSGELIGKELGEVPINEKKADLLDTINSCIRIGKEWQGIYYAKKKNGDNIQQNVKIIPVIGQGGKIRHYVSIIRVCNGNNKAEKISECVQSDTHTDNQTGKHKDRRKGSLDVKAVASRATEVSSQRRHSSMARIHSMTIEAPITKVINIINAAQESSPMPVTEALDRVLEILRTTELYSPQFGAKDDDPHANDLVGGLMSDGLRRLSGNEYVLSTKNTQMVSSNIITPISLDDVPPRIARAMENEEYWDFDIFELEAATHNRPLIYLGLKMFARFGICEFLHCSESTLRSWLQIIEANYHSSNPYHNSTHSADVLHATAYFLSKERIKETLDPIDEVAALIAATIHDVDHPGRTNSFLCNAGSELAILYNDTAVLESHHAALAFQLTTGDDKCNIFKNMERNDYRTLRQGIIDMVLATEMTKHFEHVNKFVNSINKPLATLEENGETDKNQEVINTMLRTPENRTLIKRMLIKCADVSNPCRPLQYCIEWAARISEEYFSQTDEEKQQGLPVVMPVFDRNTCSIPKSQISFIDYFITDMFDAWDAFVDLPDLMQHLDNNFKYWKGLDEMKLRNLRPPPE", "assay": "Inhibition of PDE8A1 catalytic domain (unknown origin) using [3H]-cGMP/[3H]-cAMP as substrate after 15 mins by liquid scintillation counting analysis"}, "HepG2 [4]": {"test_system": "HepG2", "assay": "Hypoglycemic effect in human HepG2 cells assessed as reduction of 8-Br-cAMP/dexamethasone-induced G-6-Pase mRNA expression at 10 nM (reference value: 233%)", "type": "functional", "parameters": "scale not given: the % may be the effect or the level left"}, "Mus musculus [5]": {"test_system": "Mus musculus", "assay": "Acute toxicity in KM mouse assessed as poisoned symptom at 1 to 1200 mg/kg, po measured up to 2 weeks", "type": "organism-based", "parameters": "dose 1-1200 mg/kg, route oral", "conditions": "in vivo, 336 h"}, "HepG2 [6]": {"test_system": "HepG2", "assay": "Hypoglycemic effect in human HepG2 cells assessed as reduction of 8-Br-cAMP/dexamethasone-induced PEPCK mRNA expression at 1000 nM (reference value: 184%)", "type": "functional", "parameters": "scale not given: the % may be the effect or the level left"}, "[7]": {"molecular_target": "cGMP-dependent 3',5'-cyclic phosphodiesterase (Homo sapiens, UniProt O00408)", "sequence (O00408 whole entry, the tested form may be a part)": "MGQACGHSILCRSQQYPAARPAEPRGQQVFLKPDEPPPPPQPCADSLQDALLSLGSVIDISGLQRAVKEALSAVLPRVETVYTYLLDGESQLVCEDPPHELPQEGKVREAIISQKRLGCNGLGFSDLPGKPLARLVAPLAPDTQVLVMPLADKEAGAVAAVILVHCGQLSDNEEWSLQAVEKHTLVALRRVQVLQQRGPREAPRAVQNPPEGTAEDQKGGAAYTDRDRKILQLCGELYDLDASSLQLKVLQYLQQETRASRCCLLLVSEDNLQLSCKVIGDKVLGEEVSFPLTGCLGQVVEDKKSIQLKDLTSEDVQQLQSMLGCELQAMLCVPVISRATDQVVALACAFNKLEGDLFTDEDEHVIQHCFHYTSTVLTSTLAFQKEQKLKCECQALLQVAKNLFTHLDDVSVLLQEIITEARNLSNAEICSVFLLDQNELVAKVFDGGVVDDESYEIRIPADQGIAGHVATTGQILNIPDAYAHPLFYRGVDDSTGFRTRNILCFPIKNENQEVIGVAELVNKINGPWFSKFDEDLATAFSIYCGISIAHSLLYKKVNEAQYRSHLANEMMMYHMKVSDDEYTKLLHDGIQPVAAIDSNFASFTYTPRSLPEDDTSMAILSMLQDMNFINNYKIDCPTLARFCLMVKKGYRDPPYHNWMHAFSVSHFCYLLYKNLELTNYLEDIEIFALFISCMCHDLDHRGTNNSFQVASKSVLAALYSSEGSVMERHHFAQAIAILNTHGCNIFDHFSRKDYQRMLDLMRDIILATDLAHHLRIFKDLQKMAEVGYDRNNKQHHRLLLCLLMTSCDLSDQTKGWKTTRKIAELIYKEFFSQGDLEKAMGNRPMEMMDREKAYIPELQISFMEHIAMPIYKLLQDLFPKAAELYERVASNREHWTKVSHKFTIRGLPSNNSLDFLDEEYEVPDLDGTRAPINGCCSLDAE", "assay": "Inhibition of PDE2A3 catalytic domain (unknown origin) using [3H]-cGMP/[3H]-cAMP as substrate after 15 mins by liquid scintillation counting analysis"}, "Mus musculus [8]": {"test_system": "Mus musculus", "assay": "Acute toxicity in KM mouse assessed as abnormal behaviour at 1 to 1200 mg/kg, po measured up to 2 weeks", "type": "organism-based", "parameters": "dose 1-1200 mg/kg, route oral", "conditions": "in vivo, 336 h"}, "Mus musculus [9]": {"test_system": "Mus musculus", "assay": "Acute toxicity in KM mouse assessed as change in body weight at 1 to 1200 mg/kg, po measured up to 2 weeks", "type": "organism-based", "parameters": "dose 1-1200 mg/kg, route oral", "conditions": "in vivo, 336 h"}, "HepG2 [10]": {"test_system": "HepG2", "assay": "Hypoglycemic effect in human HepG2 cells assessed as reduction of 8-Br-cAMP/dexamethasone-induced G-6-Pase mRNA expression at 100 nM (reference value: 233%)", "type": "functional", "parameters": "scale not given: the % may be the effect or the level left"}, "[11]": {"assay": "Apparent clearance in CD-1 mouse liver microsomes at […] incubated for 5 mins prior to NADPH addition measured after 30 mins by LC/MS/MS analysis", "type": "ADME", "conditions": "read-out: CL(app)"}, "HepG2 [12]": {"test_system": "HepG2", "assay": "Hypoglycemic effect in human HepG2 cells assessed as reduction of 8-Br-cAMP/dexamethasone-induced G-6-Pase mRNA expression at 1000 nM (reference value: 233%)", "type": "functional", "parameters": "scale not given: the % may be the effect or the level left"}, "Liver": {"test_system": "Liver", "assay": "Half life in CD-1 mouse liver microsomes at […] incubated for 5 mins prior to NADPH addition measured after 30 mins by LC/MS/MS analysis", "type": "ADME", "conditions": "0.5 h"}, "HepG2 [13]": {"test_system": "HepG2", "assay": "Hypoglycemic effect in human HepG2 cells assessed as reduction of 8-Br-cAMP/dexamethasone-induced PEPCK mRNA expression at 10 nM (reference value: 184%)", "type": "functional", "parameters": "scale not given: the % may be the effect or the level left"}, "[14]": {"assay": "Plasma protein binding in human at 1 to 5 uM after 4 hrs by LC/MS/MS analysis", "type": "ADME, cell-free", "conditions": "read-out: PPB"}, "Mus musculus [15]": {"test_system": "Mus musculus", "assay": "Acute toxicity in KM mouse assessed as mortality at 1 to 1200 mg/kg, po measured up to 2 weeks", "type": "organism-based", "parameters": "dose 1-1200 mg/kg, route oral", "conditions": "in vivo, 336 h"}, "HepG2 [16]": {"test_system": "HepG2", "assay": "Hypoglycemic effect in human HepG2 cells assessed as reduction of 8-Br-cAMP/dexamethasone-induced PEPCK mRNA expression at 100 nM (reference value: 184%)", "type": "functional", "parameters": "scale not given: the % may be the effect or the level left"}, "[17]": {"assay": "Solubility of the compound in simulated gastric fluid at pH 1.4 after 24 to 48 hrs by HPLC analysis", "type": "ADME", "conditions": "simulated gi fluid"}, "Mus musculus [18]": {"test_system": "Mus musculus", "assay": "Acute toxicity in KM mouse assessed as change in water/food consumption at 1 to 1200 mg/kg, po measured up to 2 weeks", "type": "organism-based", "parameters": "dose 1-1200 mg/kg, route oral", "conditions": "in vivo, 336 h"}, "[19]": {"assay": "Hepatic clearance in CD-1 mouse liver microsomes at […] incubated for 5 mins prior to NADPH addition measured after 30 mins by LC/MS/MS analysis", "type": "ADME"}, "[20]": {"assay": "Solubility of the compound in simulated intestinal fluid at pH 6.8 after 24 to 48 hrs by HPLC analysis", "type": "ADME", "conditions": "simulated gi fluid"}, "in vitro": {"assay": "in vitro", "conditions": "CD-1, mouse, liver microsomes"}, "[21]": {"molecular_target": "cGMP-inhibited 3',5'-cyclic phosphodiesterase 3A (Homo sapiens, UniProt Q14432)", "sequence (Q14432 whole entry, the tested form may be a part)": "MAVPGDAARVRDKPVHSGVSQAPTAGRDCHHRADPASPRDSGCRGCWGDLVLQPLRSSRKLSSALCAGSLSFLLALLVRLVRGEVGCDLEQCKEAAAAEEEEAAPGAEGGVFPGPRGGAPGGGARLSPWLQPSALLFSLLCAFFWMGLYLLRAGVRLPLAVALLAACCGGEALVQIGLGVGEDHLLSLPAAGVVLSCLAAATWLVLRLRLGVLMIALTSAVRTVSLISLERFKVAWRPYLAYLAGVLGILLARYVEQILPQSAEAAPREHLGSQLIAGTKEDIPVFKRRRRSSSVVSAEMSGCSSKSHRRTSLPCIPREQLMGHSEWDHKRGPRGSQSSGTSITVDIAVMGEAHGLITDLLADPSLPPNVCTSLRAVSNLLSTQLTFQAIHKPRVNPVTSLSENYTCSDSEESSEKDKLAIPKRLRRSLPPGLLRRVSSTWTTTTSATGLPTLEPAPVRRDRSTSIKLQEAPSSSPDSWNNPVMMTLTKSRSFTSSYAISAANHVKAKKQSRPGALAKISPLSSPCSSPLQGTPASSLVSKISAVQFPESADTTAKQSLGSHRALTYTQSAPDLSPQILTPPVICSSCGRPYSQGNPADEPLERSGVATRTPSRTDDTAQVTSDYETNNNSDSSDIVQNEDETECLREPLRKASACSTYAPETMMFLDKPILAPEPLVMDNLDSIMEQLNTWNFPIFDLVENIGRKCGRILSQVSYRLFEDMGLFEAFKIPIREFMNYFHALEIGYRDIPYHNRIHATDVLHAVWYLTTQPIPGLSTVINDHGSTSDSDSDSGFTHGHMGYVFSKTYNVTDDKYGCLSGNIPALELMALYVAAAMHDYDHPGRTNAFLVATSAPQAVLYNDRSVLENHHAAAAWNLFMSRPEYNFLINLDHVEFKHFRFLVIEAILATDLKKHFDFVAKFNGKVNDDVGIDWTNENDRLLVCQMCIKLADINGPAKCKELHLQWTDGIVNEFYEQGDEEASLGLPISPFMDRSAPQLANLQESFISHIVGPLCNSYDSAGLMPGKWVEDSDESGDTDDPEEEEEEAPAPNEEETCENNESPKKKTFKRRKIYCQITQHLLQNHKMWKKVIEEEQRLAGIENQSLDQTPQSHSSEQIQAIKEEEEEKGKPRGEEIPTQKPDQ", "assay": "Inhibition of PDE3A catalytic domain (unknown origin) using [3H]-cGMP/[3H]-cAMP as substrate after 15 mins by liquid scintillation counting analysis"}}, "data": [{"smiles": "COc1ccc(NC(=O)[C@@H](C)Nc2nc3c(cnn3-c3ccccc3Cl)c(=O)[nH]2)cc1", "values": [{"measurement": "IC50", "setting": "[1]", "result": 51.2, "unit": "µM"}, {"measurement": "IC50", "setting": "[2]", "result": 6.4, "unit": "nM"}, {"measurement": "IC50", "setting": "[3]", "result": "> 100", "unit": "µM"}]}, {"smiles": "COc1ccc(NC(=O)[C@@H](C)Nc2nc3c(cnn3C3CCCC3)c(=O)[nH]2)cc1", "values": [{"measurement": "Activity", "setting": "HepG2 [4]", "result": 98.4, "unit": "%"}, {"measurement": "Activity", "setting": "Mus musculus [5]", "result": "Non-toxic"}, {"measurement": "Activity", "setting": "HepG2 [6]", "result": 105, "unit": "%"}, {"measurement": "IC50", "setting": "[7]", "result": 13, "unit": "µM"}, {"measurement": "Activity", "setting": "Mus musculus [8]", "result": "Non-toxic"}, {"measurement": "Activity", "setting": "Mus musculus [9]", "result": "Non-toxic"}, {"measurement": "Activity", "setting": "HepG2 [10]", "result": 93.2, "unit": "%"}, {"measurement": "CLint scaled at […]", "setting": "[11]", "result": 244, "unit": "mL/min/kg"}, {"measurement": "Activity", "setting": "HepG2 [12]", "result": 97.2, "unit": "%"}, {"measurement": "IC50", "setting": "[3]", "result": "> 100", "unit": "µM"}, {"measurement": "t1/2", "setting": "Liver", "result": 22.3, "unit": "min"}, {"measurement": "Activity", "setting": "HepG2 [13]", "result": 108, "unit": "%"}, {"measurement": "fraction unbound at 4 h, up to 5 µM", "setting": "[14]", "result": "< 0.057"}, {"measurement": "Activity", "setting": "Mus musculus [15]", "result": "Non-toxic"}, {"measurement": "Activity", "setting": "HepG2 [16]", "result": 96.5, "unit": "%"}, {"measurement": "solubility", "setting": "[17]", "result": 26, "unit": "µg/mL"}, {"measurement": "Activity", "setting": "Mus musculus [18]", "result": "Non-toxic"}, {"measurement": "CLhep predicted at […]", "setting": "[19]", "result": 65.8, "unit": "mL/min/kg"}]}, {"smiles": "COc1ccc(NC(=O)[C@H](C)Nc2nc3c(cnn3C3CCCC3)c(=O)[nH]2)cc1", "values": [{"measurement": "solubility", "setting": "[20]", "result": 31, "unit": "µg/mL"}, {"measurement": "IC50", "setting": "[3]", "result": "> 100", "unit": "µM"}, {"measurement": "fraction unbound at 4 h, up to 5 µM", "setting": "[14]", "result": "< 0.057"}, {"measurement": "solubility", "setting": "[17]", "result": 23, "unit": "µg/mL"}]}, {"smiles": "CC(=O)CC(c1ccccc1)c1c(O)c2ccccc2oc1=O", "note": "(stereo not drawn) [WARFARIN]", "values": [{"measurement": "CLint scaled at […]", "setting": "[11]", "result": 30.9, "unit": "mL/min/kg"}, {"measurement": "CLhep predicted at […]", "setting": "[19]", "result": 23, "unit": "mL/min/kg"}]}, {"smiles": "C[C@]12CC[C@H]3[C@@H](CCC4=CC(=O)CC[C@@]43C)[C@@H]1CC[C@@H]2O", "note": "[TESTOSTERONE]", "values": [{"measurement": "CLint scaled at […]", "setting": "[11]", "result": 2730, "unit": "mL/min/kg"}, {"measurement": "t1/2", "setting": "Liver", "result": 2, "unit": "min"}, {"measurement": "hepatic extraction ratio at 0.5 h, […]", "setting": "in vitro", "result": 0.968}, {"measurement": "CLhep predicted at […]", "setting": "[19]", "result": 87.1, "unit": "mL/min/kg"}]}, {"smiles": "COc1ccc(NC(=O)[C@H](C)Nc2nc3c(cnn3-c3ccccc3Cl)c(=O)[nH]2)cc1", "values": [{"measurement": "IC50", "setting": "[7]", "result": "> 50", "unit": "µM"}, {"measurement": "solubility", "setting": "[20]", "result": 13, "unit": "µg/mL"}, {"measurement": "IC50", "setting": "[1]", "result": "> 100", "unit": "µM"}, {"measurement": "IC50", "setting": "[3]", "result": "> 100", "unit": "µM"}, {"measurement": "fraction unbound at 4 h, up to 5 µM", "setting": "[14]", "result": "< 0.057"}, {"measurement": "IC50", "setting": "[21]", "result": "> 50", "unit": "µM"}, {"measurement": "solubility", "setting": "[17]", "result": 8, "unit": "µg/mL"}]}]}
